Results on 13 compounds are retold here after PMC10118286 (Journal of medicinal chemistry, 2021).

Data set [1] concerns MDA-MB-231 cells. The following applies: read-out: Anti-proliferative active (IC50, μM) MDA-MB-231; cell viability assay for 24 h.
The subject of data set [2] is MDA-MB-468 cells. The following applies: read-out: Anti-proliferative active (IC50, μM) MDA-MB-468; cell viability assay for 24 h.
The target in data set [3] is T1, BRD4 (Homo sapiens, UniProt O60885). In words: BRD4 inhibition assay. The format is binding.
Data set [4] deals with T2, CK2 (Homo sapiens, UniProt P68400). The following applies: 10 μM.
T2 sequence (P68400 whole entry): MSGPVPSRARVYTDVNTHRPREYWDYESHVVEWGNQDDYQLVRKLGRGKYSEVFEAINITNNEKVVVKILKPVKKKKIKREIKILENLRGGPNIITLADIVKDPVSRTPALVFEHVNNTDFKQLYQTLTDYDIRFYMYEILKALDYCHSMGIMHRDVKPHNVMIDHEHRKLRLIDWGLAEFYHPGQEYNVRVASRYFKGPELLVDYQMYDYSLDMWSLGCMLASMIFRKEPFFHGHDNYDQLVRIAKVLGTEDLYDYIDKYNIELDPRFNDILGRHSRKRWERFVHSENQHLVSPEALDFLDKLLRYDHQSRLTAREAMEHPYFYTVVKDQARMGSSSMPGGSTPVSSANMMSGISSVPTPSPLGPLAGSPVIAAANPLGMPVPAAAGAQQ
The target of data set [5] is T2, CK2. Put plainly: biochemical. Particulars: read-out: Kinase inhibitory activity (1 μM, %) CK2.
Data set [6] in a line: Pharmacokinetic study in SD rats. The format is in vivo, Sprague–Dawley (SD) rats.
Data set [7] relates to MDA-MB-231 xenograft. In words: MDA-MB-231 xenograft tumor model. The data set is classed as in vivo, nude mice (BALB/c).
The subject of data set [8] is MCF-10A cells. In words: Cell viability. The data set is classed as cell-based.
In data set [9] the target is T1, BRD4. Put plainly: CETSA in MDA-MB-231 cells, BRD4. The data set is classed as cell-based. The following applies: 5 μM, 6 h.
For data set [10], the target named is CK2α (Homo sapiens, UniProt P68400). In words: CETSA in MDA-MB-231 cells, CK2α. The format is cell-based. Particulars: 5 μM, 6 h.
Sequence of CK2α (P68400 whole entry): as above
The subject of data set [11] is p-BRD4^S492. In words: Western blot of p-BRD4 S492, MDA-MB-231 cells. The data set is classed as cell-based. Particulars: 0, 2.5, 5, and 10 μM for 24 h. In general terms: Immunoblotting shows a protein as a band on a membrane.
Data set [12] concerns p-BRD4^S492. Put plainly: Western blot of p-BRD4 S492, MDA-MB-468 cells. The data set is classed as cell-based. The following applies: 0, 2.5, 5, and 10 μM for 24 h.
Data set [13] has as its system MDA-MB-231 cells. Put plainly: Colony formation assay, MDA-MB-231. The format is cell-based. Particulars: 0, 2.5, 5, and 10 μM for 7 days.
Data set [14] deals with MDA-MB-468 cells. In words: Colony formation assay, MDA-MB-468. The data set is classed as cell-based. The following applies: 0, 2.5, 5, and 10 μM for 7 days.
The test system of data set [15] is MDA-MB-231 cells. In words: Annexin-V/PI flow cytometry apoptosis, MDA-MB-231. The format is cell-based. Particulars: 24 h. In general terms: A flow cytometer gives signals particle by particle.
Data set [16] has as its system MDA-MB-468 cells. Put plainly: Annexin-V/PI flow cytometry apoptosis, MDA-MB-468. The data set is classed as cell-based. The following applies: 24 h.
For data set [17], the system named is MDA-MB-231 cells. Put plainly: Autophagy assay. The following applies: 5 μM. The data set is classed as cell-based.
Data set [18] deals with MDA-MB-468 cells. In words: Autophagy assay. The data set is classed as cell-based. Particulars: 5 μM.
Data set [19] relates to CK1. Particulars: read-out: CK1 inhibitory profile (IC50); triplicate, mean ± SD.
Data set [20] deals with MDA-MB-468 xenograft.
In data set [21] the test system is MDA-MB-231R cells. Put plainly: Antiproliferative activity toward compound 1-resistant MDA-MB-231R cells. Particulars: p < 0.01.
Setting [22] is: 25 and 50 mg/kg, intragastric, 19 days.
The mark [23] stands for this setting: intragastric, once a day for 19 days.

In general, IC50 refers to the midpoint of a concentration-inhibition curve.

Turning to “2-(4-(5,7-Dimethoxy-4-oxo-1,4-dihydroquinazolin-2-yl)-2,6-dimethylphenoxy)-N-morpholinoacetamide [Compound 42b]”, the IC50 in data set [1] came to 20.6 ± 0.62 µM; in data set [2], 18.5 ± 1.23 µM.
The corresponding values for “2-(4-(5,7-Dimethoxy-4-oxo-1,4-dihydroquinazolin-2-yl)-phenoxy)-N-(4-methylpiperazin-1-yl)acetamide [Compound 42g]” are 12.8 ± 1.72 µM and 13.7 ± 0.23 µM.
The corresponding values for “2-(4-(5,7-Dimethoxy-4-oxo-1,4-dihydroquinazolin-2-yl)-phenoxy)-N-morpholinoacetamide [Compound 42a]” are 14.7 ± 1.55 µM and 12.5 ± 0.87 µM.
Consider “6-Methoxy-2-(2-methoxyphenyl)-4H-chromen-4-one [Compound 33c]”, for which the IC50 in [1] and in data set [2] was over 50 µM throughout.
For the compound `Cc1sc2c(c1C)C(c1ccc(Cl)cc1)=N[C@@H](CC(=O)OC(C)(C)C)c1nnc(C)n1-2` [Compound 1, JQ1, reference compound], in [3] (read-out: Kinase inhibitory activity (1 μM, %) BRD4), the inhibition at 1 µM was 97 ± 1.32%.
In the case of `COc1cc(OC)c2c(=O)[nH]c(-c3ccc(OCC(=O)O)cc3)nc2c1` [Compound 26, 2-(4-(5,7-Dimethoxy-4-oxo-1,4-dihydroquinazolin-2-yl)-phenoxy)acetic Acid], in data set [3] (10 μM), the “inhibitory ratio on BRD4” value was 63%. For the same compound, the “inhibitory ratio on CK2” value in data set [4] is 45%.
As to `COc1cc(OC)c2c(=O)[nH]c(-c3cc(C)c(OCC(=O)Nc4nc5ccccc5[nH]4)c(C)c3)nc2c1` [Compound 42j, N-(1H-Benzo[d]imidazol-2-yl)-2-(4-(5,7-dimethoxy-4-oxo-1,4-dihydroquinazolin-2-yl)-2,6-dimethylphenoxy)acetamide], the inhibition at 1 µM in [5] is 25.6 ± 6.57%.
Regarding `COc1cc(OC)c2c(=O)[nH]c(-c3ccc(OCC(=O)Nc4ccc(N5CCN(C)CC5)c(Cl)c4)cc3)nc2c1` [Compound 44e, N-(3-Chloro-4-(4-methylpiperazin-1-yl)phenyl)-2-(4-(5,7-dimethoxy-4-oxo-1,4-dihydroquinazolin-2-yl)phenoxy)acetamide], the CL in data set [6] (iv 1 mg/kg) is on record as 57.4 ± 1.3 (mL/min)/kg. The “time at which the highest concentration was observed” value in data set [6] (po 10 mg/kg) is recorded as 5.14 ± 0.71 h. Further, the “tumor growth inhibition (in words)” value in data set [7] (setting [22]) and in data set [20] (setting [22]) was “dose-dependent tumor growth inhibition” throughout. Besides, the “Ki-67 immunohistochemical staining in tumor tissue” value in data set [7] (25 or 50 mg/kg) is reported as “significantly inhibit the proliferation”. The “expression of c-Myc and p-AKT^S129 in xenograft tumor tissues (IHC)” value in data set [7] (25 or 50 mg/kg, compared with control group) is reported as “significantly reduced”. For the same compound, the “HE staining of heart, liver, spleen, lung, and kidney tissues” value in data set [7] (after 19 days of treatment) and in data set [20] (after 19 days of treatment) was “No significant morphologic or structural changes” each time. Further, the “mouse body weight and death” value in data set [7] (setting [23]) was “No significant changes in mouse body weight and death”; in data set [20] (setting [23]) it was “No significant changes in mouse body weight and death”. In addition, in [8], the “toxicity to the normal breast cell line MCF-10A” value is “did not have obvious toxicity”. Moreover, in data set [9], the “thermal stability of BRD4 (CETSA)” value is given as “improved the thermal stability”. Moreover, in data set [10], the “thermal stability of CK2α (CETSA)” value was “improved the thermal stability”. Also, the “level of p-BRD4^S492” value in [11] and in [12] was “dose-dependently downregulated” each time. The colony formation entry in data set [13] is “dose-dependently suppressed growth and reduced the number of colonies”; in data set [14] it was “dose-dependently suppressed growth and reduced the number of colonies”. The “apoptosis (Annexin-V/PI)” value in data set [15] and in [16] was “dose-dependently induced apoptosis” in each case. Besides, the autophagy induction result in data set [17] and in data set [18] was “significantly induced autophagy” each time. Besides, in [19], the half-inhibitory concentration (IC50) was over 10 µM. The “anticancer activity against compound 1-resistant cells” value in data set [21] is reported as “able to alleviate drug resistance of 1”.
As for “N-(3-Chloro-4-(4-methylpiperazin-1-yl)phenyl)-2-(4-(6-chloro-4-oxo-1,4-dihydroquinazolin-2-yl)phenoxy)acetamide [Compound 44l]”, the IC50 was 14.4 ± 0.58 µM in data set [1] and 15.3 ± 0.72 µM in data set [2].
With “N-(3-Chloro-4-(4-methylpiperazin-1-yl)phenyl)-2-(4-(6-fluoro-4-oxo-1,4-dihydroquinazolin-2-yl)phenoxy)acetamide [Compound 44j]”, the values for the IC50 in data set [1] and in [2] were 6.94 ± 0.68 µM and 7.51 ± 1.13 µM, respectively.
“N-(3-Chloro-4-(4-methylpiperazin-1-yl)phenyl)-2-(4-(6-methoxy-4-oxo-1,4-dihydroquinazolin-2-yl)phenoxy)acetamide [Compound 44k]”: the IC50 in data set [1] stood at 14.6 ± 0.77 µM; in [2], 16.4 ± 0.85 µM.
The corresponding values for “N-(3-Chloro-4-(4-methylpiperazin-1-yl)phenyl)-2-(4-(7-chloro-4-oxo-1,4-dihydroquinazolin-2-yl)phenoxy)acetamide [Compound 44m]” are 5.21 ± 0.82 µM and 6.23 ± 0.55 µM.
Turning to “N-(3-Chloro-4-(4-methylpiperazin-1-yl)phenyl)-2-(4-(7-methyl-4-oxo-1,4-dihydroquinazolin-2-yl)phenoxy)acetamide [Compound 44n]”, the IC50 was 17.4 ± 0.56 µM in data set [1] and 16.2 ± 1.83 µM in data set [2].
